“Also recorded” adds a separate entry of the source.
Assays:
[1] = tested on: isolated nerve terminals (synaptosomes); assay: Glutamate release assay (exocytosis) in synaptosomes; type: cell-based, rat; conditions: 30 mM KCl
Method: The glutamate release assay was performed using enzyme-linked fluorescent detection of released glutamate (Cousin and Robinson., 2000a, b). Briefly, synaptosomes (0.6 mg in 2 ml) were resuspended in either plus (1.2 mM CaCl2) or minus (1 mM EGTA) Ca^2+ Krebs-like solution (118.5 mM NaCl, 4.7 mM KCl, 1.18 mM MgCl2, 0.1 mM Na2HPO4, 20 mM Hepes, 10 mM glucose, pH 7.4) at 37° C. Experiments were started after addition of 1 mM NADP^+. After 1 minute 50 U of glutamate dehydrogenase was added and the synaptosome suspension was stimulated after 4 minutes with 30 mM KCl. Increases in fluorescence due to production of NADPH were monitored in a Perkin-Elmer LS-50B spectrofluorimeter at 340 nm excitation and 460 nm emission. Experiments were standardised by the addition of 4 nmol of glutamate. Data is presented as Ca^2+-dependent glutamate release, calculated as the difference between release in plus and minus Ca^2+ solution for identical stimulation conditions.

RalA = biological target: T1, RalA (Homo sapiens, UniProt P11233); assay: [α-32P]-GTP binding to small G protein RalA; conditions: data not shown
T1 sequence (P11233 1-206): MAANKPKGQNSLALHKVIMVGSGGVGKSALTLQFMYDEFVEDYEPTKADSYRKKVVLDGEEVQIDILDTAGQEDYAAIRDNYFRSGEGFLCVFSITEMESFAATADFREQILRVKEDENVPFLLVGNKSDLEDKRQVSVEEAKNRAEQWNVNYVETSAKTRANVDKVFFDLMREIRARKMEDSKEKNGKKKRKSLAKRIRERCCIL
Method: (§1) Competition of these drugs with GTP for the active site of 4 small G proteins (Rab3A, Ras, Arf2, RalA) was also tested.

ΔPH domain dynamin I = assay: GTPase assay with recombinant dynamin I lacking the PH domain; type: biochemical
Method: The plasmid for GST-Amph2-SH3 (muscle Amph2) (Butler et al., 1997) was provided by Pieto DeCamilli, Yale, Connecticut, USA, in pGEX2T vectors. The plasmid was grown in E. coli and the GST-Amph2-SH3 fusion protein was purified on glutathione (GSH)-Sepharose by elution with 10 mM reduced GSH in 20 mM Tris-HCl, pH 7.5, dialysed against the same buffer without GSH and stored at 4° C. Dynamin was purified from sheep brain by extraction from the peripheral membrane fraction of whole brain (Robinson et al., 1993) and affinity purification on GST-Amph2-SH3-sepharose as previously described (Marks and McMahon., 1998), yielding 8 mg protein from 250 g sheep brain. Recombinant dynamin II was expressed in insect cells and was a gift from Dr Sandra Schmid (Scripps, San Diego, Calif.). Recombinant dynamin I lacking the PH domain (dynamin PH, provided by Robin Scaife) was expressed in insect cells using baculoviral infection (Salim et al., 1996).
Dynamin GTPase activity was determined by hydrolysis of [ ? -^32P]GTP by a method modified from that described previously (Robinson et al., 1993). Briefly, purified dynamin I or dynamin II (0.2 μg/tube) was incubated in GTPase buffer (10 mM Tris, 10 mM NaCl, 2 mM Mg^2+, 0.05% Tween 80, pH 7.4, 1 μg/ml leupeptin and 0.1 mM PMSF) and a GTP cocktail containing 0.3 mM GTP and 1.3 μCi [ ? -^32P]-GTP in the presence or absence of varying concentrations of inhibitors or DMSO vehicle for 10 min at 30 C. The final assay volume was 40 μl. Dynamin activity was measured as either basal or phospholipid-stimulated with the addition of 5 μg/ml L-phosphatidylserine. The reaction was terminated with 100 μl of GTPase stop buffer (2% formic add, 8% acetic acid, pH 1.9), followed by 600 μl of acid-washed charcoal solution (7% charcoal in acidic solution (w/v)) and 100 μl BSA (5 mg/ml). After centrifuging for 5 min (13,000 rpm at room temperature), 200 μl of each supernatant was counted in a -counter for the release of ^32Pi from [ ? -^32P]-GTP. […]

[2] = tested on: isolated nerve terminals (synaptosomes); assay: Synaptic vesicle endocytosis, FM2-10 uptake in synaptosomes; type: cell-based, rat; conditions: 100 μM, synaptosomes
Method: Isolated nerve terminals (synaptosomes) were prepared from rat cerebral cortex by centrifugation on discontinuous percoll gradients (Dunkley et al., 1986). Fractions 3 and 4 were pooled and used in all experiments. Endocytosis was measured using uptake of the fluorescent dye FM2-10 as previously described (Cousin and Robinson 2000a). Synaptosomes (0.6 mg in 2 ml) were incubated for 5 min at 37° C. in plus or minus Ca^2+ Krebs-like solution. FM2-10 ([…]) was added 1 min before stimulation with 30 mM KCl (S1). As FM2-10 is taken up by vesicles via endocytosis at the S1 phase of stimulation, synaptosomes were incubated with antagonists during this phase. […] After 2 min of stimulation synaptosomes were washed twice in plus Ca^2+ solution containing 1 mg/ml bovine serum albumin. The washing steps remove non-internalised FM2-10 and the tyrphostins. Washed synaptosomes were resuspended in plus Ca^2+ solution at 37° C., transferred to a fluorimeter cuvette and stimulated with a standard addition of 30 mM KCl (S2). The standard S2 stimulation releases all accumulated FM2-10 and allows endocytosis to be measured as the decrease in FM2-10 fluorescence due to dye release into solution (excitation 488 nm, emission 540 nm).
Endocytosis was calculated as the decrease in absolute fluorescence stimulated by 30 mM KCl at S2. […] Retrieval efficiency is a more accurate measure of endocytosis since it takes into account the amount of prior exocytosis. Retrieval efficiency was calculated as endocytosis/exocytosis, where endocytosis is defined as above and exocytosis as Ca^2+-dependent glutamate release after 2 min of stimulation. The retrieval efficiency value was normalised to a ratio of 1.0 for 30 mM KCl.

dynamin I = dynamin I (Ovis aries, UniProt A0ACI6NZN1); assay: Phospholipid binding and helix assembly (sedimentation assay); conditions: 10 or 100 μM, PS liposomes
dynamin I, sequence (A0ACI6NZN1 entry or part of it): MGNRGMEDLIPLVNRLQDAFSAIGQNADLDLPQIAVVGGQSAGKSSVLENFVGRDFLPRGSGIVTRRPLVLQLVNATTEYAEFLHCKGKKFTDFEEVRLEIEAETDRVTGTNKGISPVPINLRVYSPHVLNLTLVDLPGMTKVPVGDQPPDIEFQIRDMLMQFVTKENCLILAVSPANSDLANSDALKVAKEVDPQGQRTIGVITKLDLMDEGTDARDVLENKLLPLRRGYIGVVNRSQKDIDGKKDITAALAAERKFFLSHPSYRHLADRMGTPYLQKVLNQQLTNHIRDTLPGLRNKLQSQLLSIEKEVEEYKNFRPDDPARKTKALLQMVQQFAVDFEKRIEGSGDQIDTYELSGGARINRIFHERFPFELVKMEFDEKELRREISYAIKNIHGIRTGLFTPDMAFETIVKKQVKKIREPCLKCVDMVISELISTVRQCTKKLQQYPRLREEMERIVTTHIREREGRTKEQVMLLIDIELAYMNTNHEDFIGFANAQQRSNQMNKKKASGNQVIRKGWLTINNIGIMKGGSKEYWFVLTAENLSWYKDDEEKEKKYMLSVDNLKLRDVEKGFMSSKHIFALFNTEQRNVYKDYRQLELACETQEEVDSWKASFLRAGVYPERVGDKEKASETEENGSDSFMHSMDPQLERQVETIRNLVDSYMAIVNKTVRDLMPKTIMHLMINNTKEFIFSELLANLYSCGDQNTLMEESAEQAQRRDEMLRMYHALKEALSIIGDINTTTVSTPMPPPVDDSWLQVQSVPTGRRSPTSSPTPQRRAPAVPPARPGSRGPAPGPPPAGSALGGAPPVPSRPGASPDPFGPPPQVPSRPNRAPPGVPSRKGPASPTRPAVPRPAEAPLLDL

Ras = assay: [α-32P]-GTP binding to small G protein Ras; conditions: data not shown
Method: as §1

Arf2 = assay: [α-32P]-GTP binding to small G protein Arf2; conditions: data not shown
Method: as §1

N#C/C(=C\c1ccc(O)c(O)c1)C(=O)NCCCNC(=O)/C(C#N)=C/c1ccc(O)c(O)c1 [bis-tyrphostin]
exocytosis (Ca2+-dependent glutamate release) [1]: no effect
effect on [α-32P]-GTP binding to RalA (RalA): neither drug affected
ability to inhibit GTPase activity of dynamin I lacking the PH domain (ΔPH domain dynamin I): still inhibits
inhibition of ΔPH domain dynamin I GTP hydrolysis (ΔPH domain dynamin I; at 10 μM): more than 50%
inhibition of synaptic vesicle endocytosis (SVE) [2]: specifically decreases endocytosis
inhibition of synaptic vesicle endocytosis (SVE) ([2]; listed as Bis-tyrphostin): significantly inhibited
phospholipid binding and dynamin helix assembly (dynamin I): completely unaffected; also recorded: does not block dynamin binding to lipid
effect on [α-32P]-GTP binding to Ras (Ras): neither drug affected
effect on [α-32P]-GTP binding to Arf2 (Arf2): neither drug affected
